Source: patent US12202844B2, “MAP4K1 inhibitors” (Blueprint Medicines Corporation, priority 2021, dated 2025)

Each compound was assayed against T1, MAP4K1 (HPK1) (Homo sapiens, UniProt Q92918) (assay: Inhibition of MAP4K1 biochemical enzymatic activity (EZReader 2 electrophoretic mobility shift)). Conditions: HPK1 (Invitrogen), S6K2tide 1.5 μM, 120 min; ATP 26 μM or 1000 μM (not given).
T1 construct: purchased Invitrogen
From the text: MAP4K1 (HPK1) and relevant off-target enzymatic activity was monitored using the Perkin Elmer electrophoretic mobility shift technology platform—the EZReader 2. […] Within the linear, steady-state phase of the kinase enzymatic reaction, the mixed pool of phosphorylated (product) and non-phosphorylated (substrate) peptides was passed through the microfluidic system of the PerkinElmer EZ Reader 2, under an applied electric potential difference. The presence of the phosphate group on the product peptide provided a difference in mass and charge between that of the substrate peptide, resulting in a separation of the substrate and product pools in the sample (Perrin et al. 2010). As the product and substrate peptide mixture passes the lasers within the instrument, these pools are detected (λex=488 nm, λem=568 nm) and resolved as separate peaks. The ratio between these peaks reflects the activity of the compound at that concentration, in that well, under those conditions.
Inhibitors were dissolved in 100% DMSO at a stock concentration of 10 mM. A 100×, 10-point, 4-fold serial dilution of each inhibitor was created in 100% DMSO either manually or on a Hamilton STAR liquid handler, starting at a relevant concentration, usually 1 mM. A volume of 0.130 μL of each concentration was transferred to the relevant wells of a 384-well plate (Greiner 781 201) in duplicate using a TTPLabtech Mosquito nano-litre dispenser. Using a Multidrop Combi, the remaining constituents of the kinase reaction were added to the 130 nL of dosed compound as follows (see table below for final reaction details):
Enzyme activity assays at the ^APPKM for ATP or 1 mM ATP: In each well of a 384-well plate, 0.1-15 nM of untreated enzyme was incubated in a total of 13 μL of buffer (100 mM HEPES pH 7.5, 0.015% Brij 35, 10 mM MgCl2, 1 mM DTT) with 1.5 μM fluorescent peptid and 20-1000 μM ATP, at 25° C., for 60-180 minutes in the presence or absence of a dosed concentration series of compound (1% DMSO final concentration). The kinase reactions were stopped by the addition of 70 μl of Stop buffer (100 mM HEPES pH 7.5, 0.015% Brij 35, 35 mM EDTA and 0.2% of Coating Reagent 3 (Caliper Lifesciences)). The plates were read on a Caliper EZReader 2 as described above.

T1 sequence (Q92918 whole entry): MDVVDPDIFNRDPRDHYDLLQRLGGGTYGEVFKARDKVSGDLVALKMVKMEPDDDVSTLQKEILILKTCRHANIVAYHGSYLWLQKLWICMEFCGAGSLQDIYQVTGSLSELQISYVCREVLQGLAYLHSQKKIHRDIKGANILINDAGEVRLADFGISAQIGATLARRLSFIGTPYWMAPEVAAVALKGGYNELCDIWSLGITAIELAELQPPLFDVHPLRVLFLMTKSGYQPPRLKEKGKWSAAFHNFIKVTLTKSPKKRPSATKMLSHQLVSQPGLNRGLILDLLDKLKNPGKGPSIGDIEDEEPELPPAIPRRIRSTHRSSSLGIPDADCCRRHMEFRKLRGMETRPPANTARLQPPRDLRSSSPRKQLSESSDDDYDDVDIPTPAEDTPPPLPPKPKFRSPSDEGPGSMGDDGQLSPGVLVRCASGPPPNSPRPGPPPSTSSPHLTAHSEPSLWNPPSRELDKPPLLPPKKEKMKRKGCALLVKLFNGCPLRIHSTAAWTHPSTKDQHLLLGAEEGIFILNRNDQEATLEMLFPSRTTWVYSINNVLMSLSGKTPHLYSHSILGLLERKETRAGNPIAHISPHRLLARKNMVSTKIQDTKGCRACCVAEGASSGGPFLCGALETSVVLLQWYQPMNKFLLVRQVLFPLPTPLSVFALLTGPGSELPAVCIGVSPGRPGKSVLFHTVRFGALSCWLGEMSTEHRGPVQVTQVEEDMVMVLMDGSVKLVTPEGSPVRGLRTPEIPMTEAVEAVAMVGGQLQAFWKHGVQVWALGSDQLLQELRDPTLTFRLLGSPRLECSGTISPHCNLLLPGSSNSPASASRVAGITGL

Row | Compound | IC50 [pM]
1 | C[C@@H]1COC(=O)c2ccc(Nc3cc4c(C(C)(C)N)cnc(O[C@H]5C[C@@H](S(C)(=O)=O)C5)c4cn3)nc21 (single isomer, unassigned) [Compound 5] | 1770
2 | CC[C@@](C)(N)c1cnc(O[C@H]2C[C@@H](S(C)(=O)=O)C2)c2cnc(Nc3ccc4c(n3)[C@H](C)COC4=O)cc12 (single isomer, unassigned) [Compound 8] | 310
3 | CC[C@@](C)(N)c1cnc(O[C@H]2C[C@@H](S(C)(=O)=O)C2)c2cnc(Nc3ccc4c(n3)[C@H](C)COC4=O)cc12 (single isomer, unassigned) [Compound 9] | 920
4 | C[C@@H]1OC(=O)c2ccc(Nc3cc4c(C(C)(C)N)cnc(O[C@@H](C)CCS(C)(=O)=O)c4cn3)nc2[C@H]1C (single isomer, unassigned) [Compound 19] | 900
5 | CC[C@@](C)(N)c1cnc(OCCCS(C)(=O)=O)c2cnc(Nc3ccc4c(n3)[C@H](C)[C@H](C)OC4=O)cc12 (single isomer, unassigned) [Compound 21] | 180
6 | C[C@H]1OC(=O)c2ccc(Nc3cc4c(C(C)(C)N)cnc(O[C@H]5C[C@@H](S(C)(=O)=O)C5)c4cn3)nc2C12CC2 (single isomer, unassigned) [Compound 24] | 150
7 | C[C@@H]1COC(=O)c2ccc(Nc3cc4c(C(C)(C)N)cnc(O[C@H]5C[C@@H](S(=O)(=O)C6CC6)C5)c4cn3)nc21 (single isomer, unassigned) [Compound 25] | 1530
8 | C[C@@H]1[C@@H](Oc2ncc(C(C)(C)N)c3cc(Nc4ccc5c(n4)[C@@H](C)[C@H](C)OC5=O)ncc23)C[C@H]1S(C)(=O)=O (single isomer, unassigned) [Compound 30] | 790
9 | C[C@@H]1[C@@H](Oc2ncc(C(C)(C)N)c3cc(Nc4ccc5c(n4)[C@@H](C)[C@H](C)OC5=O)ncc23)C[C@H]1S(C)(=O)=O (single isomer, unassigned) [Compound 31] | 200
10 | C[C@@H]1OC(=O)c2ccc(Nc3cc4c(C(C)(C)N)cnc(O[C@@H]5CC[C@@H](S(C)(=O)=O)C5)c4cn3)nc2[C@H]1C (single isomer, unassigned) [Compound 34] | 560
11 | C[C@@H]1OC(=O)c2ccc(Nc3cc4c(C(C)(C)N)cnc(O[C@@H]5CC[C@@H](S(C)(=O)=O)C5)c4cn3)nc2[C@H]1C (single isomer, unassigned) [Compound 35] | 480
12 | C[C@@H]1c2nc(Nc3cc4c(C(C)(C)N)cnc(OC[C@H]5CCS(=O)(=O)C5)c4cn3)ccc2C(=O)OC1(C)C (single isomer, unassigned) [Compound 36] | 540
13 | C[C@@H]1c2nc(Nc3cc4c(C(C)(C)N)cnc(OC[C@H]5CCS(=O)(=O)C5)c4cn3)ccc2C(=O)OC1(C)C (single isomer, unassigned) [Compound 37] | 440
14 | C[C@@H]1OC(=O)c2ccc(Nc3cc4c(C(C)(C)N)cnc(O[C@@H]5CC[C@H](S(C)(=O)=O)C5)c4cn3)nc2[C@H]1C (single isomer, unassigned) [Compound 40] | 860
15 | C[C@@H]1OC(=O)c2ccc(Nc3cc4c(C(C)(C)N)cnc(O[C@@H]5CC[C@H](S(C)(=O)=O)C5)c4cn3)nc2[C@H]1C (single isomer, unassigned) [Compound 41] | 680
16 | CC[C@@](C)(N)c1cnc(OCCCS(C)(=O)=O)c2cnc(Nc3ccc4c(n3)C3(CC3)[C@H](C)OC4=O)cc12 (single isomer, unassigned) [Compound 43] | 120
17 | C[C@H](CCS(C)(=O)=O)Oc1ccc(C(C)(C)N)c2cc(Nc3ccc4c(n3)[C@@H](C)C(C)(C)OC4=O)ncc12 (single isomer, unassigned) [Compound 45] | 200
18 | C[C@H](CCS(C)(=O)=O)Oc1ccc(C(C)(C)N)c2cc(Nc3ccc4c(n3)[C@@H](C)C(C)(C)OC4=O)ncc12 (single isomer, unassigned) [Compound 46] | 710
19 | C[C@H](CCS(C)(=O)=O)Oc1ncc(C(C)(C)N)c2cc(Nc3ccc4c(n3)[C@@H](C)C(C)(C)OC4=O)ncc12 (single isomer, unassigned) [Compound 54] | 820
20 | CC[C@@](C)(N)c1cnc(OCCCS(C)(=O)=O)c2cnc(Nc3ccc4c(n3)C(C)(C)[C@H](C)OC4=O)cc12 (single isomer, unassigned) [Compound 56] | 210

Row | Compound | IC50 [pM]
21 | CC[C@@](C)(N)c1cnc(O[C@H]2C[C@@H](S(C)(=O)=O)C2)c2cnc(Nc3ccc4c(n3)C3(CC3)[C@@H](C)OC4=O)cc12 (single isomer, unassigned) [Compound 58] | 100
22 | C[C@H]1[C@H](Oc2ncc(C(C)(C)N)c3cc(Nc4ccc5c(n4)[C@@H](C)C(C)(C)OC5=O)ncc23)C[C@@H]1S(C)(=O)=O (single isomer, unassigned) [Compound 68] | 510
23 | C[C@@H]1[C@H](S(C)(=O)=O)C[C@H]1Oc1ncc(C(C)(C)N)c2cc(Nc3ccc4c(n3)[C@@H](C)C(C)(C)OC4=O)ncc12 (single isomer, unassigned) [Compound 70] | 230
24 | C[C@@H]1[C@H](S(C)(=O)=O)C[C@H]1Oc1ncc(C(C)(C)N)c2cc(Nc3ccc4c(n3)[C@@H](C)C(C)(C)OC4=O)ncc12 (single isomer, unassigned) [Compound 71] | 280
25 | CC[C@@H](CCS(C)(=O)=O)Oc1ncc([C@](C)(N)CC)c2cc(Nc3ccc4c(n3)[C@@H](C)[C@H](C)OC4=O)ncc12 (single isomer, unassigned) [Compound 83] | 920
26 | CC[C@@H](CCS(C)(=O)=O)Oc1ncc([C@](C)(N)CC)c2cc(Nc3ccc4c(n3)[C@@H](C)[C@H](C)OC4=O)ncc12 (single isomer, unassigned) [Compound 84] | 740
27 | CC[C@@](C)(N)c1cnc(O[C@H](C)CCS(C)(=O)=O)c2cnc(Nc3ccc4c(n3)C(C)(C)[C@H](C)OC4=O)cc12 (single isomer, unassigned) [Compound 96] | 770
28 | CC[C@@](C)(N)c1cnc(O[C@@H](C)CCS(C)(=O)=O)c2cnc(Nc3ccc4c(n3)C(C)(C)[C@H](C)OC4=O)cc12 (single isomer, unassigned) [Compound 97] | 2110
29 | CCS(=O)(=O)[C@H]1C[C@@H](Oc2ncc([C@H](N)C3CC3)c3cc(Nc4ccc5c(n4)[C@@H](C)C(C)(C)OC5=O)ncc23)C1 (single isomer, unassigned) [Compound 101] | 480
30 | CC[C@@](C)(N)c1cnc(O[C@@H](C)CCS(=O)(=O)C2CC2)c2cnc(Nc3ccc4c(n3)[C@@H](C)[C@H](C)OC4=O)cc12 (single isomer, unassigned) [Compound 106] | 220
31 | CC[C@@](C)(N)c1cnc(O[C@@H](C)CCS(=O)(=O)C2CC2)c2cnc(Nc3ccc4c(n3)[C@@H](C)[C@H](C)OC4=O)cc12 (single isomer, unassigned) [Compound 107] | 260
32 | C[C@H](C[C@@H](C)S(C)(=O)=O)Oc1ncc([C@@](C)(N)C2CC2)c2cc(Nc3ccc4c(n3)CC(C)(C)OC4=O)ncc12 (single isomer, unassigned) [Compound 108] | 220
33 | C[C@H](C[C@@H](C)S(C)(=O)=O)Oc1ncc([C@@](C)(N)C2CC2)c2cc(Nc3ccc4c(n3)[C@@H](C)[C@H](C)OC4=O)ncc12 (single isomer, unassigned) [Compound 109] | 150
34 | CCS(=O)(=O)C[C@H]1C[C@H](Oc2ncc(C(C)(C)N)c3cc(Nc4ccc5c(n4)[C@@H](C)C(C)(C)OC5=O)ncc23)C1 (single isomer, unassigned) [Compound 111] | 120
35 | CCC[C@@](C)(N)c1cnc(O[C@H](C)C[C@@H](C)S(C)(=O)=O)c2cnc(Nc3ccc4c(n3)CC(C)(C)OC4=O)cc12 (single isomer, unassigned) [Compound 124] | 260
36 | CCC[C@@](C)(N)c1cnc(O[C@H](C)C[C@@H](C)S(C)(=O)=O)c2cnc(Nc3ccc4c(n3)[C@@H](C)[C@H](C)OC4=O)cc12 (single isomer, unassigned) [Compound 125] | 180
37 | CC[C@@](C)(N)c1cnc(O[C@H](C)C[C@@H](C)S(C)(=O)=O)c2cnc(Nc3ccc4c(n3)C(C)(C)[C@H](C)OC4=O)cc12 (single isomer, unassigned) [Compound 130] | 220
38 | CCS(=O)(=O)C[C@H](C)[C@@H](C)Oc1ncc(C(C)(C)N)c2cc(Nc3ccc4c(n3)[C@@H](C)C(C)(C)OC4=O)ncc12 (single isomer, unassigned) [Compound 131] | 1940
39 | C[C@H](C[C@@H](C)S(C)(=O)=O)Oc1ncc([C@@](C)(N)C2CC2)c2cc(Nc3ccc4c(n3)[C@@H](C)C(C)(C)OC4=O)ncc12 (single isomer, unassigned) [Compound 137] | 210
